Laboratory results: PubChem BioAssay (NCI)
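Cells were grown in 96-well plates and exposed to each compound for 48 hours at five concentrations; endpoints were interpolated linearly between bracketing concentrations, or set to the highest concentration if not reached. At the TGI there is no net growth.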

Tested on: P388 leukemia
Assay: NCI tumour cell line growth inhibition, 48 h

## CC(CN1CC(=O)NC(=O)C1)N1CC(=O)NC(=O)C1 (stereo unspecified)
  TGI: > 750 µM
